The values that follow come from patent publication US12240815B2, “Potent and selective human neuronal nitric oxide synthase inhibitors” (Northwestern University, priority 2020, dated 2025).

One assay has as its target rat nNOS (Rattus norvegicus, UniProt P29476). In words: NO hemoglobin capture assay, rat nNOS. Format: biochemical.
The target in another assay is murine macrophage iNOS (Mus musculus, UniProt P29477). Put plainly: NO hemoglobin capture assay, murine iNOS. The assay is classed as biochemical. To be noted: pH 7.4.
The target in a further assay is human eNOS (Homo sapiens, UniProt P29474). Put plainly: NO hemoglobin capture assay, human eNOS.
The next assay has as its target human iNOS (Homo sapiens, UniProt P35228). Put plainly: NO hemoglobin capture assay, human iNOS.
Another assay addresses human nNOS (Homo sapiens, UniProt P29475). In words: NO hemoglobin capture assay, human nNOS. To be noted: Table 5; for Ki: Ki from IC50 by Cheng-Prusoff, 8 to 11 concentrations, read-out: Ki HnNOS. Format: biochemical.
Setting [1] is: read-out: Ki HiNOS, Table 5, Ki from IC50 by Cheng-Prusoff, 8 to 11 concentrations.

As usually defined, the Ki is a dissociation constant, usually derived from enzyme kinetics or from competition with a known ligand.

Counter-ions that a name gives are not always drawn. Like-named read-outs stand apart in the source and are kept apart here.

Sequence of human nNOS (P29475 whole entry): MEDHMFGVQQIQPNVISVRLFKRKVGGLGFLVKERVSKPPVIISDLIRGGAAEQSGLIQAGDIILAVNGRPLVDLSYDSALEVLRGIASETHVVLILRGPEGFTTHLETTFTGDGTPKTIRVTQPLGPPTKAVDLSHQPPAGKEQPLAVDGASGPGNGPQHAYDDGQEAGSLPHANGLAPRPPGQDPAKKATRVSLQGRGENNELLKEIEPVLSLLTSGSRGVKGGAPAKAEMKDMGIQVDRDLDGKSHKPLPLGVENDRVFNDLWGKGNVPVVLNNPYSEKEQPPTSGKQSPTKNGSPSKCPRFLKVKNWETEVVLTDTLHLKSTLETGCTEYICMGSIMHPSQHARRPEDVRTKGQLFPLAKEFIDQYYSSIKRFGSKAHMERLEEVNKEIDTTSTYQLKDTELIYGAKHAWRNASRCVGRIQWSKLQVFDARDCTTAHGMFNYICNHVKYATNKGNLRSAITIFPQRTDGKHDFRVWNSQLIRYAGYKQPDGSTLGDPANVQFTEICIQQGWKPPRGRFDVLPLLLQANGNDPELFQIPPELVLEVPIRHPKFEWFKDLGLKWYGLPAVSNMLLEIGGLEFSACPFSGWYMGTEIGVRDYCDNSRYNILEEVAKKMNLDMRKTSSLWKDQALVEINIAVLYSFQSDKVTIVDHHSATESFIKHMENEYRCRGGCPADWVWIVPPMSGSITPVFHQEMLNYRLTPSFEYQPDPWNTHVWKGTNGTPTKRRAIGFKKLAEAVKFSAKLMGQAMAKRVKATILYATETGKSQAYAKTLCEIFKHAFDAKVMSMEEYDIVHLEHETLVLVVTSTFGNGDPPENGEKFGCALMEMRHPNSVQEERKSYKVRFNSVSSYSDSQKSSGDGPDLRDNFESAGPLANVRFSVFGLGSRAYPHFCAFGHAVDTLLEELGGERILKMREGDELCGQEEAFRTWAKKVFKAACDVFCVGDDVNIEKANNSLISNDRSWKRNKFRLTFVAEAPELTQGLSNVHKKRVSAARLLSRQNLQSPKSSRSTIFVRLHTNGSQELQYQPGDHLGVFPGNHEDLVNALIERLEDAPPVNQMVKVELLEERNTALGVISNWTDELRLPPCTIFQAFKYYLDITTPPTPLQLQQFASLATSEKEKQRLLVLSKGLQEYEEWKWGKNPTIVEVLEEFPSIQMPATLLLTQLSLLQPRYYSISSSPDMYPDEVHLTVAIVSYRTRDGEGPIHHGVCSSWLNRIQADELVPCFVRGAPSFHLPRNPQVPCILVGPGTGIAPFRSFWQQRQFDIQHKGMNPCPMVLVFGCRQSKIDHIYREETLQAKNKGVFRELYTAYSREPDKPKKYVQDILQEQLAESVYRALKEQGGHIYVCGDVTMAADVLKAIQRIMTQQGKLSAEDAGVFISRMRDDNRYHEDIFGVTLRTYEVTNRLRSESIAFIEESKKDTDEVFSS
Sequence of rat nNOS (P29476 whole entry): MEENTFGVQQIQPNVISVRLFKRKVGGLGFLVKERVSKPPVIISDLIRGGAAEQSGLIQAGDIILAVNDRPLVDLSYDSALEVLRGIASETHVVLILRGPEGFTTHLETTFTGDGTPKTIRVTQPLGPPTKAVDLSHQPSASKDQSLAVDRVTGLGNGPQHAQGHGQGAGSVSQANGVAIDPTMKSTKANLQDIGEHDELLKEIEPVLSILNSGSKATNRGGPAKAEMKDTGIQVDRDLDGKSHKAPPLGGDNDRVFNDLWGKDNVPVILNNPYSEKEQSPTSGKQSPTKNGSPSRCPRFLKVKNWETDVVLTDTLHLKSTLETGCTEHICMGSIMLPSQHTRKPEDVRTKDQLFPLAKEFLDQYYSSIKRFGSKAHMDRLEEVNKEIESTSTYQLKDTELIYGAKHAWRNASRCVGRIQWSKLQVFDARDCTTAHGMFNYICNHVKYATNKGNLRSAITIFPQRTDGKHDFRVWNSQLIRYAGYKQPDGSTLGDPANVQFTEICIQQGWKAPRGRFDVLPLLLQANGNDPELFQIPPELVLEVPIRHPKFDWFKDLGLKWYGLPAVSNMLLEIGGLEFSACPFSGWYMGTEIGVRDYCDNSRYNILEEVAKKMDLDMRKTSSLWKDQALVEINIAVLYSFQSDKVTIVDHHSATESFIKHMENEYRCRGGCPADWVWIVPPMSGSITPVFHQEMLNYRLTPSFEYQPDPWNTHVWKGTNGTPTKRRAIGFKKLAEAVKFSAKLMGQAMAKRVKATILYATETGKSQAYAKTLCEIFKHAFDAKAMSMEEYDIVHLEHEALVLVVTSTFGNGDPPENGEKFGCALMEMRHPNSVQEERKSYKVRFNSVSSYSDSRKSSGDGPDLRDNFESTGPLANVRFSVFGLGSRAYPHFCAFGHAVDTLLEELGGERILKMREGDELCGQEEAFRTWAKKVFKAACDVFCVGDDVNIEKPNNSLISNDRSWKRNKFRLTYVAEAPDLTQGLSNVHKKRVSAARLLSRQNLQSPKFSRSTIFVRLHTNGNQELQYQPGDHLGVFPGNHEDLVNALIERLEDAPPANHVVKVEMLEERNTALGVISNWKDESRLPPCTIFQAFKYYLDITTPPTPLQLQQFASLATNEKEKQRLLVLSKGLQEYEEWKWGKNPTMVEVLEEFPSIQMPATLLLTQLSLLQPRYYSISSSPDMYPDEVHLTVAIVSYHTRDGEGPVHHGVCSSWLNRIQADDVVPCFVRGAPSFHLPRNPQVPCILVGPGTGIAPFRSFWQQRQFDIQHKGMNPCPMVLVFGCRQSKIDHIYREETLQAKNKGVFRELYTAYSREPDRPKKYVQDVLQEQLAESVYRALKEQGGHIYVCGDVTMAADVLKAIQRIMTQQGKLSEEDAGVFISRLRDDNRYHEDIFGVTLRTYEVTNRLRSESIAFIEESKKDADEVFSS

With `Cc1cc(N)nc(CCc2cc(CCCN(C)C)cc(F)c2F)c1` [Compound 10, 6-(5-(3-(dimethylamino)propyl)-2,3-difluorophenethyl)-4-methylpyridin-2-amine], the Ki at rat nNOS (pH 7.4, read-out: Ki rat nNOS) stood at 0.019 µM; at murine macrophage iNOS it was 0.823 µM; on human eNOS (read-out: Ki human eNOS), 35 µM; at human iNOS (read-out: Ki human iNOS), 1.31 µM.
As to `Cc1cc(N)nc(CCCN(C)C)c1` [Compound 69, 6-(3-(Dimethylamino)propyl)-4-methylpyridin-2-amine hydrochloride], the Ki at human nNOS was 0.029 µM; at human eNOS, 0.537 µM; at human iNOS (setting [1]), 2.83 µM.
For `Cc1cc(N)nc(CCCN2CCN(C)CC2)c1` [Compound 72, 4-Methyl-6-(3-(4-methylpiperazin-1-yl)propyl)pyridin-2-amine], the figures for the Ki on rat nNOS (read-out: Ki RnNOS), at human nNOS and on human iNOS (setting [1]) were 0.055 µM, 0.171 µM and 10.2 µM, respectively. The compound further gave a Selectivity hn/rn on human nNOS of 3.0.
Regarding `Cc1cc(N)nc(C#CCN2CCN(C)CC2)c1` [Compound 73, 4-Methyl-6-(3-(4-methylpiperazin-1-yl)prop-1-yn-1-yl)pyridin-2-amine], the Ki was found to be 0.947 µM on rat nNOS (Table 5, Ki from IC50 by Cheng-Prusoff, 8 to 11 concentrations, read-out: Ki RnNOS); 2.12 µM at human nNOS; 114 µM on human iNOS (setting [1]). At human nNOS, this compound displayed a Selectivity hn/rn of 2.2.
